Earlier results in US7022306B1, “Process for the production of hydrogen” (UOP LLC, priority 2003, dated 2006).
Like-named read-outs stand apart in the source and are kept apart here.

Tests used:
Rat [1] = test system: Rat
Rat [2] = test system: Rat; remark: listed apart in the source

CCCC [Butane]
Toxicity LC50 (mg/liter) Inhalation-Rat (Rat [1]; for 4 hours): 658 for 4 hours mg/liter

CC(C)O [Isopropanol]
Toxicity LD50 (mg/kg) Oral-Rat (Rat [2]): 5045 mg/kg

CC(C)OC(C)C [Isopropylether]
Toxicity LD50 (mg/kg) Oral-Rat (Rat [2]): 8470 mg/kg

C [Methane]
Toxicity LC50 (mg/liter) Inhalation-Rat (Rat [1]): >5 mg/L

CCCCC [Pentane]
Toxicity LD50 (mg/kg) Oral-Rat (Rat [2]): >2000 mg/kg

OC[C@@H](O)[C@@H](O)[C@H](O)[C@@H](O)CO [Sorbitol]
Toxicity LD50 (mg/kg) Oral-Rat (Rat [2]): 15900 mg/kg
